{
  "source": "patent EP0184990A1",
  "about": "“Alkylidenedioxy compounds” (CIBA-GEIGY AG, priority 1984, dated 1986)",
  "key": {"[1]": {"tested_on": "Rauscher-Leukämie-Virus (RLV, ein RNS-Tumorvirus)", "test": "Rauscher leukaemia virus infection in mice, survival time", "type": "in vivo, weibliche Balb/c-Mäuse", "conditions": "20 p.o. administrations of 125 mg/kg each, female Balb/c mice infected with Rauscher leukaemia virus; controls 31,7 Tage (p < 0,001 Cox-Test)", "text": "Die Wirkung auf Virusinfektionen kann anhand von in vivo-Testanordnungen festgestellt werden. So besitzen Verbindungen der Formel I in Tierexperimenten bei gewissen neoplastischen Krankheiten, die durch RNS-Tumorviren hervorgerufen werden, oder bei denen RNS-Tumorviren nachweisbar sind, eine starke Wirksamkeit. Sie verlängern z.B. die mittlere Ueberlebensdauer von Mäusen nach Infektion mit Rauscher-Leukämie-Virus (RLV, ein RNS-Tumorvirus).\nBei den Versuchen mit Rauscher-Leukämie 4 Q (NIH) werden weibliche Balb/c-Mäuse (28 bis 34 Tage alt) mit 0,2 ml einer zehnfach mit Hanks Lösung verdünnten Virussuspension aus Milzmaterial von 4-6 Wochen vorher infizierten Mäusen infiziert. […] Die erste Verabreichung erfolgt 30 Minuten vor der Infektion, weitere Verabreichungen täglich einmal und fünfmal in der Woche während 4 Wochen. Als Kriterium für die Wirkung dient die Verlängerung der Ueberlebenszeit. Während bei den Kontrolltieren ab 30 Tagen nach der Infektion eine Leukämie mit leukämischen Blutzellen von über 50000/mm^3 gefunden werden können und die Tiere zu sterben beginnen, wird die Ueberlebenszeit der mit 125 mg/kg p.o. der Testsubstanz behandelten weiblichen Mäuse signifikant verlängert. […]"}, "[2]": {"test": "Maximum tolerated dose in mice after single administration", "set-up": "species or system Mäusen", "conditions": "mouse, in vivo, 7-day observation, read-out: maximal tolerierte Dosis", "method": "Die pharmakologische Wirksamkeit der Verbindungen der vorliegenden Erfindung ist begleitet von einer guten Verträglichkeit. So liegt die maximal tolerierte Dosis für das obengenannte 6,6-Dimethyl-4,5-dihydro-6H-(1,3-dioxolo)r3,41naphthor1,2-blpyran in Mäusen nach einmaliger p.o- und i.p.-Verabreichung und anschliessender 7-tägiger Beobachtungsdauer über 2500 mg/kg bzw. über 1250 mg/kg."}},
  "note": "Like-named read-outs stand apart in the source and are kept apart here.",
  "data": [
    {"smiles": "CC1(C)CCc2c3c(c4ccccc4c2O1)OCO3", "note": "[Beispiel 1, 6,6-Dimethyl-4,5-dihydro-6H-(1,3-dioxolo)f3,41-naphthof1,2-blpyran]", "values": [
      {"measurement": "Ueberlebenszeit", "setting": "[1]", "value": "60,9 Tage"},
      {"measurement": "MTD at 168 h", "setting": "[2]; ip, single i.p. administration", "value": "> 1250", "unit": "mg/kg"},
      {"measurement": "MTD at 168 h", "setting": "[2]; po, single p.o. administration", "value": "> 2500", "unit": "mg/kg"}
    ]}
  ]
}
